Measured values from EP0911330B1, “1-(4-Arylpiperazine-1-y1)-3-(2-oxopyrrolidin/piperidin-1-y1) propanes as therapeutic agents for hypertension, ischemia, cardiovascular and other adrenergic receptors related disorders” (Council of Scientific & Industrial Research, priority 1997, dated 1999).

Key:
[1] = system: Spinal transected cat; experiment: Site of action: spinal transected cat, blood pressure; type: in vivo; settings: dose 2-10 umol/kg i.d.
[2] = system: Rat aortic ring preparation; experiment: Rat aortic ring preparation, NE induced contraction
[3] = system: cat; experiment: Comparative antihypertensive effect with clinically used antihypertensive drugs in cat; type: in vivo; settings: 2 uMol/kg i.v.
Excerpt: (4) Comparative antihypertensive effect with clinically used antihypertensive drugs at 2 uMol/kg i.v. dose in cat

[4] = system: Langendorffs perfused rat heart preparation; experiment: Langendorff perfused rat heart, chronotropic effect
[5] = Site of action: ICV administration, blood pressure; type: in vivo; settings: dose 0.34-1.36 (column head: umol/kg i.d.)
[6] = system: Hypertensive rat model preparation; experiment: Effect on blood pressure, heart rate and adrenaline vasopressor response, anaesthetized hypertensive rat model; type: in vivo
Method: 2. Effect on blood pressure, heart rate and adrenaline vasopressor response of anaesthetized (pentobarbitone sodium 40 & 60 mg/kg i.p. in cat and rat respectively) normotensive & hypertensive rat & cat model preparations. […]

[7] = system: cat; experiment: Drug antagonism studies of the antihypertensive effect in cat; type: in vivo; settings: 2 uMol dose i.v.
[8] = system: Isolated aortic strip; experiment: Isolated aortic strip, endothelin induced contraction
[9] = Acute toxicity (LD50); settings: mouse, in vivo, Mice
[10] = system: Langendorff perfused rat heart preparation; experiment: Cardioprotective activity, Langendorff perfused rat heart, prolonged ischemic insult, compound given at reperfusion
Method: Further, in Langendorff perfused rat heart preparation subjected to even upto 90 min. global ischemia, the compound at 0.001 ug/ml conc. given at the time of reperfusion revived normal rhythmic contraction started within 2 min. (Table 1) and incidence of reperfusion induced arrhythmia were abolished. Table 1: Compound administered at the time of reperfusion at the dose of 0.001 ug/ml on prolong period (90 min.) of ischemic insult.
(§1) The rats were killed by decapitation, heart were rapidly excised and placed in ice-cold HEPES tyrode buffer. Then isolated hearts were perfused retrogradely through coronary arteries using the Langendorff technique. The perfusion buffer consisted (in mM) NaCl 137, KCl 5.4, CaCl2 1.8, MgCl2 1.0, glucose 11.2 and HEPES 3.0. The buffer (pH 7.4) was continuously gassed with oxygen and maintained at 37°C. Coronary flow rate was maintained at 10 ml/min. The heart contracted spontaneously.
(§2) The perfused heart was allowed to equilibrate for 30 min. before initiation of any insult protocol. The text compounds were given at the time of reperfusion. Some of the compounds were dissolved in ethanol. Final concentration of ethanol in the perfusion buffer was 0.0001% and had no effect of its own on the parameter used. • (a) For brief period of ischemic insult (Hideo et al.). Pathophysiology and pathogenesis of stunned myocardium. J. Clin. Invest., 79, 950-961, 1987). Ischemia was initiated by stopping the flow for 16 min. followed by 30 min. reperfusion period. The durations were decided on the initial pilot experiments leading to 50% recovery of function. • (b) For prolong period of ischemic insult (Becker, L.C. & Ambrosio, G. Myocardial consequences of reperfusion. Prog. Cardiovas. Dis., 30, 23-44, 1987). Ischemia was initiated by stopping the flow for […]. followed by 30 min. reperfusion.

[11] = system: histamine induced bronchoconstriction; experiment: Konzett and Rossler preparation, histamine induced bronchoconstriction; type: in vivo
[12] = system: Normotensive rat model preparation; experiment: Effect on blood pressure, heart rate and adrenaline vasopressor response, anaesthetized normotensive rat; type: in vivo
Method: (§3) 2. Effect on blood pressure, heart rate and adrenaline vasopressor response of anaesthetized (pentobarbitone sodium 40 & 60 mg/kg i.p. in cat and rat respectively) normotensive & hypertensive rat & cat model preparations.

[13] = system: Normotensive cat; experiment: Effect on blood pressure, heart rate and adrenaline vasopressor response, anaesthetized normotensive cat; type: in vivo
Method: as §3
(§4) • (a) Cats (2.6-4.0 kg) of either sex anaesthetized with pentobarbitone sodium (40 mg/kg i.v.) and showing basal mean arterial blood pressure below 150 mm (Hg) were categorised as normotensive and above 150 mm Hg as hypertensive. Arterial blood pressure (BP) was recorded from one of the carotid artery through a stathum P23 DC pressure transducer and 7P1 low level DC preamplifier on a Grass Model P7 Polygraph, Signals from 7P1 preamplifier were used to trigger 7P4 Tachograph preamplifier for recording the heart rate (HR). Right femoral vein and Trachea were cannulated for intravenous injections and artificial ventilation respectively. Control responses to intravenous injection of noradrenaline (2-4 ug); acetyl choline (1-2 ug); histamine ([…]) and isoprenaline (1-2 ug) were taken before and after the administration of test doses of each compounds.

[14] = system: Isolated Guinea pig ileum preparation; experiment: Isolated guinea pig ileum, antihistaminic activity; settings: 0.5-5.0 ug/ml
[15] = system: Naturally occuring hypertensive cat; experiment: Effect on blood pressure, heart rate and adrenaline vasopressor response, anaesthetized naturally hypertensive cat; type: in vivo
Method: as §3, §4

[16] = system: cat; experiment: Effect on blood pressure and adrenaline vasopressor response in anaesthetized cat, i.v. (Table 2); type: in vivo
Method: as §4

[17] = system: Langendorff perfused rat heart; experiment: Antiischemic activity, Langendorff perfused rat heart, brief (16 min.) ischemic insult, compound given at reperfusion (Table 3); settings: 0.001 ug/ml at reperfusion
Method: Table 3: Compound administered at the time of reperfusion at a dose of 0.001 ug/ml on brief period (16 min.) of ischemic insult.
as §1, §2

[18] = system: Rat hind limb perfusion; experiment: Site of action: rat hind limb perfusion, flow; type: in vivo
[19] = up to 90 min. global ischemia, 0.001 ug/ml given at the time of reperfusion
[20] = dose 20 uMol/kg i.d., in beats/min (unit assumed)

O=C1CCCN1CCCN1CCN(c2ccc(F)cc2)CC1 [C6H4-4-F, n=1, 1-[4-(4-fluorophenyl)piperazin-1-yl]-3-[2-oxopyrrolidin-1-yl]propane]
B.P. fall [1]: 14-18%
Dur. [1]: 15 to 30 min
NE induced contraction [2]: inhibited
B.P. fall [3]: 22%
Dur. [3]: 25 min
duration of negative chronotropic effect ([4]; 1 ug): 10 min
negative chronotropic effect ([4]; 1 ug): 30%
duration of negative chronotropic effect ([4]; 3 ug): 14 min
negative chronotropic effect ([4]; 3 ug): 26%
duration of negative chronotropic effect ([4]; 5 ug): 5 min
negative chronotropic effect ([4]; 5 ug): 5%
B.P. fall [5]: 8-10%
Dur. [5]: 10 to 15 min
Adrenaline vasopressure response % inhibition ([6]; dose 5 uMol/kg i.d.): 33%
B.P. fall ([6]; dose 5 uMol/kg i.d.): 27%
Dur. ([6]; dose 5 uMol/kg i.d.): 51 min
Heart rate Pre treatment ([6]; dose 5 uMol/kg i.d.): 346 beats/min
Heart rate post treatment ([6]; dose 5 uMol/kg i.d.): 320 beats/min
Adrenaline vasopressure response % inhibition ([6]; dose 10 uMol/kg i.d.): 23%
B.P. fall ([6]; dose 10 uMol/kg i.d.): 22%
Dur. ([6]; dose 10 uMol/kg i.d.): 76 min
Heart rate Pre treatment ([6]; dose 10 uMol/kg i.d.): 356 beats/min
Heart rate post treatment ([6]; dose 10 uMol/kg i.d.): 340 beats/min
Adrenaline vasopressure response % inhibition ([6]; dose 20 uMol/kg i.d.): 54%
B.P. fall ([6]; dose 20 uMol/kg i.d.): 29%
Dur. ([6]; dose 20 uMol/kg i.d.): 100 min
Heart rate Pre treatment ([6]; dose 20 uMol/kg i.d.): 310 beats/min
Heart rate post treatment ([6]; dose 20 uMol/kg i.d.): 275 beats/min
reduction of the fall in blood pressure ([7]; glibenclamide pretreatment): only partially reduced
alteration of antihypertensive effect ([7]; pretreatment with atropine sulphate, mepyramine maleate, propranolol, or yohimbine): failed to alter
reduction of antihypertensive effect ([7]; pretreatment with captopril or Dup-753): 33%
reduction of antihypertensive effect ([7]; pretreatment with prazosin): 90%
reduction of antihypertensive effect ([7]; pretreatment with verapamil): 50%
Endothelin induced contraction [8]: inhibited significantly
Response to endothelin after washing the preparation ([8]; after washing): relaxation rather than contraction
LD50 ([9]; ip): 147 mg/kg
LD50 ([9]; po): 562 mg/kg
Onset ([10]; 0.001 ug/ml at reperfusion, 90 min. ischemic insult): 4 min
incidence of reperfusion induced arrhythmia [10, 19]: abolished
time until normal rhythmic contraction started [10, 19]: ≤ 2 min
antihistaminic activity against histamine induced bronchoconstriction [11]: some antihistaminic activity
B.P. fall ([12]; dose 2 uMol/kg i.v.): 25%
Dur. ([12]; dose 2 uMol/kg i.v.): 11 min
Heart rate Pre treatment ([12]; dose 2 uMol/kg i.v.): 350 beats/min
Heart rate post treatment ([12]; dose 2 uMol/kg i.v.): 370 beats/min
B.P. fall ([12]; dose 10 uMol/kg i.v.): 10%
Dur. ([12]; dose 10 uMol/kg i.v.): 3 min
Heart rate Pre treatment ([12]; dose 10 uMol/kg i.v.): 315 beats/min
Heart rate post treatment ([12]; dose 10 uMol/kg i.v.): 360 beats/min
B.P. fall ([12]; dose 20 uMol/kg i.v.): 21%
Dur. ([12]; dose 20 uMol/kg i.v.): 27.5 min
Heart rate Pre treatment ([12]; dose 20 uMol/kg i.v.): 315 beats/min
Heart rate post treatment ([12]; dose 20 uMol/kg i.v.): 285 beats/min
Adrenaline vasopressure response % inhibition ([13]; dose 10 uMol/kg i.d.): 26%
B.P. fall ([13]; dose 10 uMol/kg i.d.): 22%
Dur. ([13]; dose 10 uMol/kg i.d.): 85 min
Heart rate Pre treatment ([13]; dose 10 uMol/kg i.d.): 200 beats/min
Heart rate post treatment ([13]; dose 10 uMol/kg i.d.): 170 beats/min
Adrenaline vasopressure response % inhibition ([13]; dose 20 uMol/kg i.d.): 34.75%
B.P. fall ([13]; dose 20 uMol/kg i.d.): 21%
Dur. ([13]; dose 20 uMol/kg i.d.): >102.5 min
Heart rate Pre treatment ([13]; dose 20 uMol/kg i.d.): 185 beats/min
Heart rate post treatment ([13]; dose 20 uMol/kg i.d.): 165 beats/min
antihistaminic activity [14]: significant antihistaminic activity
Adrenaline vasopressure response % inhibition ([15]; dose 10 uMol/kg i.d.): 49%
B.P. fall ([15]; dose 10 uMol/kg i.d.): 16%
Dur. ([15]; dose 10 uMol/kg i.d.): 110 min
Heart rate Pre treatment ([15]; dose 10 uMol/kg i.d.): 195/195
Heart rate post treatment ([15]; dose 10 uMol/kg i.d.): 195/195
B.P. fall ([15]; dose 20 uMol/kg i.d.): 22%
Dur. ([15]; dose 20 uMol/kg i.d.): >156.75 min
Heart rate Pre treatment [15, 20]: 177
Heart rate post treatment [15, 20]: 185
inhibition at 2 µmol/kg ([16]; Felis catus, iv, dose 2.0 umol/kg i.v., read-out: Adrenaline vasopressure response % inhibition): 9%
inhibition in vivo at 2 µmol/kg ([16]; Felis catus, iv, dose 2.0 umol/kg i.v., read-out: B.P. fall %): 25%
inhibition at 10 µmol/kg ([16]; Felis catus, iv, dose 10.0 umol/kg i.v., read-out: Adrenaline vasopressure response % inhibition): > 100%
inhibition in vivo at 10 µmol/kg ([16]; Felis catus, iv, dose 10.0 umol/kg i.v., read-out: B.P. fall %): 31%
Dur. ([16]; dose 2.0 umol/kg i.v.): 71 min
Dur. ([16]; dose 10.0 umol/kg i.v.): >112 min
Onset [17]: 1.5 min
Percent change in flow ([18]; total dose 10 ug): no effect
Percent change in flow ([18]; total dose 25 ug): +35 (Vasodilatation) Percent
Percent change in flow ([18]; total dose 50 ug): +50 (Vasodilatation) Percent
